In the supplement of paper PMC10307832:

Legend:
Assay in all cases: relative viability (nuclei count vs DMSO), 5 days (fraction); higher = more cells survive
[1] = system: ChaGo-K-1
In short: (§1)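 Nuclei were stained with Hoechst during a one-step fixation (final 0.05% Triton X-100, 1% formaldehyde, 1 ug/ml Hoechst) carried out 5 days after dosing, then counted on 4× images. The cells, lung cancer lines in 1536-well plates, had been dosed by pin tool the day after seeding with one drug alone or a fixed anchor-drug dose plus five library-drug doses (not always all listed) in √10 steps. Relative viability is the nuclei count in treated wells divided by that in vehicle wells, and each value is the median of duplicate plates.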

[2] = system: EKVX
In short: as §1

[3] = system: EMC-BAC-2
In short: as §1

[4] = system: EPLC-272H
In short: as §1

[5] = system: HCC-78
In short: as §1

[6] = system: HCC-827
In short: as §1

[7] = system: LCLC-103H
In short: as §1

[8] = system: LK-2
In short: as §1

[9] = system: LU99A
In short: as §1

[10] = system: NCI-H1666
In short: as §1

[11] = system: NCI-H1975
In short: as §1

[12] = system: NCI-H2126
In short: as §1

[13] = system: NCI-H2342
In short: as §1

[14] = system: NCI-H23
In short: as §1

[15] = system: NCI-H2405
In short: as §1

[16] = system: NCI-H322M
In short: as §1

[17] = system: PC-14
In short: as §1

[18] = system: RERF-LC-KJ
In short: as §1

[19] = system: SW 900
In short: as §1

Nc1ccn([C@@H]2O[C@H](CO)[C@@H](O)[C@@H]2O)c(=O)n1 [Cytarabine] + NC(=O)Nc1cc(-c2cccc(F)c2)sc1C(=O)N[C@H]1CCCNC1 [AZD7762] (partner 0.2 µM) showed a relative viability ([1]; first compound 0.005 µM) of 0.877, a relative viability ([1]; first compound 0.01581 µM) of 0.643 and a relative viability ([1]; first compound 0.05 µM) of 0.439. The relative viability ([1]; first compound 0.1581 µM) was 0.249, the relative viability ([1]; first compound 0.5 µM) was 0.199 and the relative viability ([2]; first compound 0.005 µM) was 0.697. It also gave a relative viability ([2]; first compound 0.01581 µM) of 0.676, a relative viability ([2]; first compound 0.05 µM) of 0.329 and a relative viability ([2]; first compound 0.5 µM) of 0.67. The relative viability ([3]; first compound 0.005 µM) was 1.09, the relative viability ([3]; first compound 0.01581 µM) was 0.97 and the relative viability ([3]; first compound 0.05 µM) was 0.674. The relative viability ([3]; first compound 0.1581 µM) was 0.344, the relative viability ([3]; first compound 0.5 µM) was 0.308 and the relative viability ([4]; first compound 0.005 µM) was 0.335. For the same compound, the relative viability ([4]; first compound 0.01581 µM) was 0.273, the relative viability ([4]; first compound 0.05 µM) was 0.117 and the relative viability ([4]; first compound 0.1581 µM) was 0.0659. The relative viability ([4]; first compound 0.5 µM) was 0.0636, the relative viability ([5]; first compound 0.005 µM) was 0.614 and the relative viability ([5]; first compound 0.01581 µM) was 0.779. It also gave a relative viability ([5]; first compound 0.05 µM) of 0.486, a relative viability ([5]; first compound 0.1581 µM) of 0.374 and a relative viability ([5]; first compound 0.5 µM) of 0.314. For the same compound, the relative viability ([6]; first compound 0.005 µM) was 0.17, the relative viability ([6]; first compound 0.01581 µM) was 0.168 and the relative viability ([6]; first compound 0.05 µM) was 0.13. The relative viability ([6]; first compound 0.1581 µM) was 0.14, the relative viability ([6]; first compound 0.5 µM) was 0.148 and the relative viability ([7]; first compound 0.005 µM) was 0.763. For the same compound, the relative viability ([7]; first compound 0.01581 µM) was 0.704, the relative viability ([7]; first compound 0.05 µM) was 0.751 and the relative viability ([7]; first compound 0.1581 µM) was 0.469. The relative viability ([7]; first compound 0.5 µM) was 0.369, the relative viability ([8]; first compound 0.005 µM) was 0.3 and the relative viability ([8]; first compound 0.01581 µM) was 0.13. The relative viability ([8]; first compound 0.05 µM) was 0.0997, the relative viability ([8]; first compound 0.1581 µM) was 0.0979 and the relative viability ([8]; first compound 0.5 µM) was 0.12. The relative viability ([9]; first compound 0.005 µM) was 0.444, the relative viability ([9]; first compound 0.01581 µM) was 0.362 and the relative viability ([9]; first compound 0.05 µM) was 0.305. For the same compound, the relative viability ([9]; first compound 0.1581 µM) was 0.352, the relative viability ([9]; first compound 0.5 µM) was 0.115 and the relative viability ([10]; first compound 0.005 µM) was 0.943. It also gave a relative viability ([10]; first compound 0.01581 µM) of 0.768, a relative viability ([10]; first compound 0.05 µM) of 0.666 and a relative viability ([10]; first compound 0.1581 µM) of 0.444. It also gave a relative viability ([10]; first compound 0.5 µM) of 0.413, a relative viability ([11]; first compound 0.005 µM) of 0.679 and a relative viability ([11]; first compound 0.01581 µM) of 0.581. It also gave a relative viability ([11]; first compound 0.05 µM) of 0.388, a relative viability ([11]; first compound 0.1581 µM) of 0.321 and a relative viability ([11]; first compound 0.5 µM) of 0.234. It also gave a relative viability ([12]; first compound 0.005 µM) of 0.965, a relative viability ([12]; first compound 0.01581 µM) of 0.936 and a relative viability ([12]; first compound 0.05 µM) of 0.808. For the same compound, the relative viability ([12]; first compound 0.1581 µM) was 0.361, the relative viability ([12]; first compound 0.5 µM) was 0.267 and the relative viability ([13]; first compound 0.005 µM) was 0.472. The relative viability ([13]; first compound 0.01581 µM) was 0.385, the relative viability ([13]; first compound 0.05 µM) was 0.397 and the relative viability ([13]; first compound 0.1581 µM) was 0.377. The relative viability ([13]; first compound 0.5 µM) was 0.301, the relative viability ([14]; first compound 0.005 µM) was 0.227 and the relative viability ([14]; first compound 0.01581 µM) was 0.171. The relative viability ([14]; first compound 0.05 µM) was 0.202, the relative viability ([14]; first compound 0.1581 µM) was 0.126 and the relative viability ([14]; first compound 0.5 µM) was 0.134. For the same compound, the relative viability ([15]; first compound 0.005 µM) was 0.612, the relative viability ([15]; first compound 0.01581 µM) was 0.454 and the relative viability ([15]; first compound 0.05 µM) was 0.445. It also gave a relative viability ([15]; first compound 0.1581 µM) of 0.249, a relative viability ([15]; first compound 0.5 µM) of 0.217 and a relative viability ([16]; first compound 0.005 µM) of 0.405. It also gave a relative viability ([16]; first compound 0.01581 µM) of 0.494, a relative viability ([16]; first compound 0.05 µM) of 0.405 and a relative viability ([16]; first compound 0.1581 µM) of 0.371. The relative viability ([16]; first compound 0.5 µM) was 0.385, the relative viability ([17]; first compound 0.005 µM) was 0.346 and the relative viability ([17]; first compound 0.01581 µM) was 0.234. The relative viability ([17]; first compound 0.05 µM) was 0.136, the relative viability ([17]; first compound 0.1581 µM) was 0.0783 and the relative viability ([17]; first compound 0.5 µM) was 0.0484. It also gave a relative viability ([18]; first compound 0.005 µM) of 0.957, a relative viability ([18]; first compound 0.01581 µM) of 0.941 and a relative viability ([18]; first compound 0.05 µM) of 0.51. For the same compound, the relative viability ([18]; first compound 0.1581 µM) was 0.381, the relative viability ([18]; first compound 0.5 µM) was 0.322 and the relative viability ([19]; first compound 0.005 µM) was 0.741. It also gave a relative viability ([19]; first compound 0.01581 µM) of 0.546, a relative viability ([19]; first compound 0.05 µM) of 0.451 and a relative viability ([19]; first compound 0.1581 µM) of 0.191. It also gave a relative viability ([19]; first compound 0.5 µM) of 0.16.
